Measurements taken from ChEMBL document CHEMBL3507680, “University of Dundee, Gates Library screen for HepG2 cell viability”.

Assay: Human HepG2 cell viability assay in 384 well format
Assay type: toxicity, cell-based
Set-up: dose 125 nL, time 70.5 hour; concentration not given beside the values
Conditions: HepG2 cells, read-out: Inhibition

Structure (SMILES) | cytotoxicity at 70.5 h [%]
CC[C@H](C)[C@@H](CO)NC(C)Cc1ccc(F)cc1 (some centres undefined) | -5.84
CS(=O)(=O)N1C[C@@H]2CC[C@H](C1)N(Cc1ccc3nsnc3c1)C2 | 18.3
Cn1c(CN2CCCC(Cn3cc(CCO)nn3)C2)cc2ccccc21 (centres undefined) | -0.291
O=C1CCCCN1CC(=O)N1CCCC(c2ccccc2)C1 (centres undefined) | -20.6
CN(CCc1ccccn1)C(=O)CCC1CCCN(c2ncccn2)C1 (centres undefined) | -1.54
CN1C(=O)C(c2ccccc2)CC12CCN(CCN)CC2 (centres undefined) | -5.41
Cc1cccc(OC2CN(C(=O)c3cnn(C)c3)C2)c1 | 16.2
Cc1csc(CN(C)C(=O)c2cccc(CCC(C)(C)O)c2)n1 | -6.05
COc1cccc(CCC2CCCN(C(=O)c3ccc(=O)n(C)n3)C2)c1 (centres undefined) | -6.31
COCCC1CN(c2nc(-c3ccccc3)nc3c2CCNC3)CCO1 (centres undefined) | 25.4
c1cncc(-c2cccc(-c3ccn(CCN4CCCCC4)n3)c2)c1 | 13.9
CS(=O)(=O)N1CC[C@]2(O)CCN(c3cc(C#N)ccn3)C[C@@H]2C1 | -11.9
CC[C@@]1(O)CCN(C(=O)c2cccc3cc(C)oc23)C[C@H]1O | 6.9
CC(C)c1cc(C2CCN(C(=O)Cn3cncn3)CC2)[nH]n1 | 43.3
CC1(C)Cc2nc(C(C)(C)C)ncc2C(NC(=O)Cc2nnn[nH]2)C1 (centres undefined) | 52.3
CN1CCN(Cc2c[nH]cn2)CC12CCC(=O)N(CC1CC1)CC2 (centres undefined) | 6.57
O=C(C1CC12CCC2)N1CCC(n2cc(-c3ccsc3)nn2)CC1 (centres undefined) | -9.29
O=C(CCn1cncn1)N1CCC2(CC1)[C@H](O)C[C@@H]2OCCO | 0.165
CNc1nc(C(=O)N2CCC3(CCCN(CCOC)C3=O)C2)cs1 (centres undefined) | -3.96
N#Cc1ccc(N2CCC(c3nccn3Cc3cscn3)CC2)nc1 | -0.885
Cc1nc(CN2CCCC(CCc3ccccc3C)C2)c[nH]1 (centres undefined) | 19
COc1ccccc1OCCCn1c(C)c(C)oc1=O | 2.36

Structure (SMILES) | cytotoxicity at 70.5 h [%]
COc1ccccc1OCCCc1cc(C)nc(N)n1 | -7.2
Cc1cc(C(=O)N2C[C@H]3CC[C@@H]2CN(Cc2ccccn2)C3)nc(C)n1 | -0.674
O=C(NCCC1CCCCO1)c1cc(COc2ccccc2F)[nH]n1 (centres undefined) | -4.49
COc1cc(NCCCSc2nnc(C)s2)ncn1 | 12
CN(C)c1ccccc1C(=O)N1C[C@@H](CN2CCC(O)CC2)[C@@H](CO)C1 | 1.37
Cc1ccsc1CN(CCCC(F)(F)F)Cc1ccccn1 | -10.1
Cc1cc(-c2nn(C)c(Cl)c2CN2CCC3(CC2)[C@H](O)C[C@@H]3O)no1 | -4.3
CN(C)C(=O)c1ccc(-c2cccc3c2CCNC3)cc1 | -18
COc1cc(CNc2nc3c(c(=O)[nH]2)CCNC3)cc(OC)c1OC | -6.47
CC(C)=CCC1(C(=O)O)CCCN(c2cc(N)ncn2)C1 (centres undefined) | 6.26
Cc1ccc(C(C)NCc2cn(CCC(N)=O)c3ccccc23)cc1C (centres undefined) | -3.87
Cc1nn(C)c2nc(N3CCN(Cc4nccn4C)CC3)sc12 | -8.28
CCCc1nc(CN(CC)C(=O)c2ccc3[nH]cnc3c2)no1 | 23.9
CCN(Cc1noc(CC(C)C)n1)Cc1ncccc1C(=O)O | -3.41
CCc1nnc(CNC2CCN(c3ncnc4c(C)csc34)CC2)s1 | -1.72
COc1nccnc1N1CCN(Cc2cccc(C)c2)C(=O)C1 | 7
CCC[C@H]1CN(S(C)(=O)=O)C[C@@H]1NC(=O)CCCn1ccnc1 | 1.51
O=C(NCCCn1cccn1)C1CCC(=O)N(CC2CCCCC2)C1 (centres undefined) | -2.08
CCC(CO)N(Cc1ccsc1)Cc1ccccc1C#N (centres undefined) | -11.3
COc1cccc(-c2nc3c([nH]2)CC(C)(C)CNC3=O)c1OC | -9.59
CN(CCc1ccccn1)C(=O)C1Cc2ccccc2CN1C (centres undefined) | -10.6
CC(C)c1cc(-c2cnn(C)c2C2CC2)c(C#N)c(N)n1 | -0.849
